Here are results for eight compounds from patent US9339463B2, “Micronized opioid compositions having a specific particle size distribution” (priority 2007, dated 2016).

Series [1] in a line: Particle size distribution by laser diffraction (Malvern Mastersizer 2000), oxycodone base. The format is physicochemical. The conditions noted are these: Table 1 analysis; lot 2 in duplicate.
Series [2] can be described thus: Physical stability on storage: particle size (Dv90) by laser diffraction. The format is physicochemical.
The mark [3] stands for this setting: 1 month, stored, including at 25° C./60% RH and/or 40° C./75% RH (not specified).
[4] abbreviates: 3 months, stored, including at 25° C./60% RH and/or 40° C./75% RH (not specified).
Where [5] appears, read: 6 months, stored, including at 25° C./60% RH and/or 40° C./75% RH (not specified).
Setting [6] is: 9 months, stored, including at 25° C./60% RH and/or 40° C./75% RH (not specified).
The mark [7] stands for this setting: 12 months, stored, including at 25° C./60% RH and/or 40° C./75% RH (not specified).

“And” between values parts separate entries of the source, which are not always exact repeats. Equal values may be shown once.

For `COc1ccc2c3c1O[C@H]1C(=O)CC[C@@]4(O)[C@@H](C2)N(C)CC[C@]314` [Lot 2 (waste), oxycodone], in series [1], the “Particle size (Dv10)” value was 0.5, 0.5 μ; the “Particle size (Dv50)” value was 1.6 μ and 2.3 μ; the “Particle size (Dv90)” value was 3.3 μ and 4.9 μ.
As for `COc1ccc2c3c1O[C@H]1C(=O)CC[C@@]4(O)[C@@H](C2)N(C)CC[C@]314` [first high purity lot, oxycodone], the “Particle size (Dv90)” value in series [2] (setting [3]) was 5 μ; in series [2] (setting [4]) it was 5 μ; in series [2] (setting [5]), 5 μ; in series [2] (setting [6]), 6 μ; in series [2] (setting [7]), 6 μ; in series [2] (25° C./60% RH, 1 month, listed as first high purity micronized lot), 4 μ. In addition, the “Particle size (Dv90)” value in series [2] (25° C./60% RH, 3 months, listed as first high purity micronized lot) worked out at 5 μ; in series [2] (25° C./60% RH, 6 months, listed as first high purity micronized lot) it was 5 μ; in series [2] (25° C./60% RH, 9 months, listed as first high purity micronized lot) it was 7 μ; in series [2] (25° C./60% RH, 12 months, listed as first high purity micronized lot), 6 μ; in series [2] (40° C./75% RH, 1 month, listed as first high purity micronized lot) it was 5 μ; in series [2] (40° C./75% RH, 3 months, listed as first high purity micronized lot), 5 μ. The “Particle size (Dv90)” value is on record as 5 μ in series [2] (40° C./75% RH, 6 months, listed as first high purity micronized lot); 4 μ in series [2] (Time 0); 4 μ in series [2] (Time 0, listed as first high purity micronized lot).
With `COc1ccc2c3c1O[C@H]1C(=O)CC[C@@]4(O)[C@@H](C2)N(C)CC[C@]314` [first lot, oxycodone], the “Particle size (Dv90)” value in series [2] (25° C./60% RH, 6 months) is 7 μ; in series [2] (25° C./60% RH, 9 months) it was 6 μ; in series [2] (25° C./60% RH, 12 months), 7 μ; in series [2] (Time 0), 6 μ.
As for `COc1ccc2c3c1O[C@H]1C(=O)CC[C@@]4(O)[C@@H](C2)N(C)CC[C@]314` [micronized oxycodone preparation, oxycodone], in series [2] (Time 0), the “Particle size (Dv90)” value is given as 5-6 μ. In addition, the “Particle size (Dv90 at three months)” value in series [2] (stored at 25° C./60% RH and 40°/75% RH, 3 months) is 6-11 μ.
For `COc1ccc2c3c1O[C@H]1C(=O)CC[C@@]4(O)[C@@H](C2)N(C)CC[C@]314` [second high purity lot, oxycodone], the “Particle size (Dv90)” value in series [2] (setting [3]) is 4 μ; in series [2] (setting [4]), 4 μ; in series [2] (setting [5]), 5 μ; in series [2] (setting [6]), 5 μ; in series [2] (setting [7]) it was 5 μ; in series [2] (25° C./60% RH, 1 month, listed as second high purity micronized lot), 4 μ. Moreover, the “Particle size (Dv90)” value in series [2] (25° C./60% RH, 3 months, listed as second high purity micronized lot) came to 4 μ; in series [2] (25° C./60% RH, 6 months, listed as second high purity micronized lot), 6 μ; in series [2] (25° C./60% RH, 9 months, listed as second high purity micronized lot), 5 μ; in series [2] (25° C./60% RH, 12 months, listed as second high purity micronized lot), 6 μ; in series [2] (40° C./75% RH, 1 month, listed as second high purity micronized lot) it was 5 μ; in series [2] (40° C./75% RH, 3 months, listed as second high purity micronized lot), 5 μ. Besides, the “Particle size (Dv90)” value in series [2] (40° C./75% RH, 6 months, listed as second high purity micronized lot) amounted to 6 μ; in series [2] (Time 0), 4 μ; in series [2] (Time 0, listed as second high purity micronized lot), 4 μ.
With `COc1ccc2c3c1O[C@H]1C(=O)CC[C@@]4(O)[C@@H](C2)N(C)CC[C@]314` [second lot, oxycodone], the “Particle size (Dv90)” value worked out at 5 μ in series [2] (25° C./60% RH, 6 months); 6 μ in series [2] (25° C./60% RH, 9 months); 6 μ in series [2] (25° C./60% RH, 12 months); 4 μ in series [2] (Time 0).
Turning to `COc1ccc2c3c1O[C@H]1C(=O)CC[C@@]4(O)[C@@H](C2)N(C)CC[C@]314` [third high purity lot, oxycodone], the “Particle size (Dv90)” value in series [2] (setting [3]) is listed as 4 μ; in series [2] (setting [4]), 4 μ; in series [2] (setting [5]), 5 μ; in series [2] (setting [6]), 5 μ; in series [2] (setting [7]) it was 5 μ; in series [2] (25° C./60% RH, 1 month, listed as third high purity micronized lot) it was 4 μ. Besides, the “Particle size (Dv90)” value worked out at 4 μ in series [2] (25° C./60% RH, 3 months, listed as third high purity micronized lot); 5 μ in series [2] (25° C./60% RH, 6 months, listed as third high purity micronized lot); 5 μ in series [2] (25° C./60% RH, 9 months, listed as third high purity micronized lot); 5 μ in series [2] (25° C./60% RH, 12 months, listed as third high purity micronized lot); 4 μ in series [2] (40° C./75% RH, 1 month, listed as third high purity micronized lot); 5 μ in series [2] (40° C./75% RH, 3 months, listed as third high purity micronized lot). Besides, the “Particle size (Dv90)” value in series [2] (40° C./75% RH, 6 months, listed as third high purity micronized lot) stood at 5 μ; in series [2] (Time 0), 5 μ; in series [2] (Time 0, listed as third high purity micronized lot) it was 5 μ.
With `COc1ccc2c3c1O[C@H]1C(=O)CC[C@@]4(O)[C@@H](C2)N(C)CC[C@]314` [third lot, oxycodone], the “Particle size (Dv90)” value in series [2] (25° C./60% RH, 6 months) is recorded as 6 μ; in series [2] (25° C./60% RH, 9 months), 6 μ; in series [2] (25° C./60% RH, 12 months), 7 μ; in series [2] (Time 0) it was 4 μ.
